In patent publication US7807712B2, “Oxy substituted chalcones as antihyperglycemic and antidyslipidemic agents” (priority 2004, dated 2010):
Like-named read-outs stand apart in the source and are kept apart here.

Experiments:
[1] = system: triton WR-1339 induced hyperlipidemic rats; assay: Triton model, antidyslipidemic activity; format: in vivo, rat (Charles foster); conditions: 100 mg/kg oral; for inhibition in vivo at 100 mg/kg: Rattus norvegicus
Procedure: Male Charles foster rats weighing 200-225 g were divided into control, hyperlipidemic and hyperlipidemic plus drug treated groups containing six animals in each group. Hyperlipidemia was induced by administration of triton WR-1339 (200 mg/kg i.p.). All animals were maintained on a special pellet diet and water ad libitum. Compounds and standard drug were macerated with 0.2% aqueous gum acacia suspension. The suspension was fed orally at the dose of 100 mg/kg simultaneously with triton in drug treated group. The animals of control group received the same amount of gum acacia by similar route of administration. At the end of the experiment, after 18 h, blood was withdrawn from retro orbital plexus and plasma was used for the assay of total cholesterol, phospholipid and triglycerides.
Cholesterol was estimated using the kit provided by Roche Diagnostics. Cholesterol esters are enzymatically hydrolyzed by cholesterol esterase (CE) to cholesterol and free fatty acids. Free cholesterol, including that originally present, is then oxidized by cholesterol oxidase (CO) to cholest-4-en-3-one and hydrogen peroxide. The hydrogen peroxide combines with hydroxy benzoic acid (HBA) and 4-aminoantipyrine (4AAA) in the presence of peroxidase (POD) to form a chromophore (quinoneimine dye), which may be quantitated at 500-505 nm. The intensity of red colour formed is directly proportional to the concentration of total cholesterol in the specimen and measured spectrophotometrically (Searcy, C. L. Diagnostic Biochemistry, 1969, McGraw Hill, New York; Ellefson, R. D.; Caraway, W. T. Fundamentals of clinical chemistry, 1976, Ed Tietz N W, 506-515.)
Triglycerides were estimated using the kit provided by Roche Diagnostics. Lipoprotein lipase hydrolyses triglycerides to yield glycerol and fatty acids. Glycerol kinase converts glycerol to glycerol-3-phosphate, which is oxidized by glycerol phosphate oxidase to dihydroxy acetone phosphate and hydrogen peroxide. In the presence of peroxidase, hydrogen peroxide oxidatively couples with 4-aminoantipyrine and 4-chloro phenol to produce red quinonimine dye. The intensity of red colour formed is directly proportional to the concentration of triglycerides in the specimen and is measured by photometrically (Wahlefeld, A. W.; Bergmeyer, H. U. Ed. Methods of enzymatic analysis, 2nd English edition, New York, N.Y., Academic press inc, 1831-1840.).
Serum (0.2 mL) and perchloric acid (1.0 mL) was digested at 180° C. for 1-1.5 h till the solution became colorless. The liberated inorganic phosphate (Pi) was measured by the method of Fiske and Subbarow (Fiske, C. H.; Subbarow, V. J. Biol. Chem. 1925, 66, 375.). 1 mL of 2.5% ammonium molybdate (prepared in 5 N sulphuric acid) and 0.5 mL reducing agent (4-amino naphthol sulphonic acid, 0.2%), sodium metabisulphite (2.4% w/v in distilled water) was added to the above tubes and mixed well. The reaction mixture was […] with 2.5 mL of triple distilled water and kept at 60° C. in water bath for 20 min. For standard, an appropriate amount of potassium dihydrogen phosphate dissolved in triple distilled water containing 2-10 μg phosphorus (Pi) was run simultaneously with the experiment tubes. The optical density of the blue colour was recorded at 620 nm against reagent blank. The values of Pi were converted into phospholipid by multiplying with 25 (a constant calibrated from Pi value of lecithin).

sucrose loaded rats = assay: Sucrose loaded rat model (SLM), antihyperglycemic activity; format: in vivo, rat (Charles Foster/Wistar); conditions: 100 mg/kg oral, sucrose load 10.0 g/kg, AUC vs control, 30-120 min; for inhibition in vivo at 100 mg/kg: Rattus norvegicus, 2 h, read-out: % Fall in blood glucose levels SLM
Procedure: Male albino rats of Charles Foster/Wistar strain of average body weight 160±20 g were selected for this study. The blood glucose level of each animal was checked by glucometer using glucostrips (Boehringer Mannheim) after 16 h starvation. Animals showing blood glucose levels between 3.33 to 4.44 mM (60 to 80 mg/dl) were divided into groups of five to six animals in each. Animals of experimental group were administered suspension of the desired synthetic compound orally (made in 1.0% gum acacia) at a dose of 100-mg/kg-body weight. Animals of control group were given an equal amount of 1.0% gum acacia. A sucrose load (10.0 g/kg) was given to each animal orally exactly after 30 min post administration of the test sample/vehicle. Blood glucose profile of each rat was again determined at 30, 60, 90 and 120 min post administration of sucrose by glucometer. Food but not water was withheld from the cages during the course of experimentation. Quantitative glucose tolerance of each animal was calculated by Area Under Curve (AUC) method (Prism Software). Comparing the AUC of experimental and control groups determined the percentage antihyperglycemic activity. Statistical comparison was made by Dunnett's test.

[2] = system: streptozotocin-induced diabetic rats; assay: Sucrose-challenged streptozotocin-induced diabetic rats (STZ-S), antihyperglycemic activity; format: in vivo, rat (Sprague Dawley); conditions: 100 mg/kg oral, sucrose load 2.5 g/kg, AUC vs control
Procedure: Male albino rats of Sprague Dawley strain of body weight […] were selected for this study. Streptozotocin (Sigma, USA) was dissolved in 100 mM citrate buffer pH 4.5 and calculated amount of the fresh solution was injected to overnight fasted rats (45 mg/kg) intraperitoneally. Blood glucose level was checked 48 h later by glucostrips and animals showing blood glucose values between 144 to 270 mg/dl (8 to 15 mM) were included in the experiment and termed diabetic. The diabetic animals were divided into groups consisting of five to six animals in each group. Animals of experimental groups were administered suspension of the desired test samples orally (made in 1.0% gum acacia) at a dose of 100-mg/kg-body weight. Animals of control group were given an equal amount of 1.0% gum acacia. A sucrose load of 2.5-g/kg body weight was given after 30 minutes of compound administration. After 30 minutes of post sucrose load blood glucose level was again checked by glucostrips at 30, 60, 90, 120, 180, 240, 300 min and at 24 h, respectively. Animals not found diabetic after 24 hours post treatment of the test sample were not considered and omitted from the calculations and termed as non-responders. […] Food but not water was withheld from the cages during the experimentation. Comparing the AUC of experimental and control groups determined the percent antihyperglycemic activity. Statistical comparison between groups was made by Student's ‘t’ test.

[3] = plasma phospholipid after 18 h, read-out: % Fall in lipid levels (Triton model) PL
[4] = plasma total cholesterol after 18 h, read-out: % Fall in lipid levels (Triton model) TC
[5] = plasma triglycerides after 18 h, read-out: % Fall in lipid levels (Triton model) TG
[6] = plasma total cholesterol after 18 h
[7] = plasma triglycerides after 18 h

Row | SMILES | inhibition in vivo at 100 mg/kg [1, 3] | inhibition in vivo at 100 mg/kg [1, 4] | inhibition in vivo at 100 mg/kg [1, 5] | melting point | inhibition in vivo at 100 mg/kg (sucrose loaded rats) | % Fall in blood glucose levels STZ-S 5 h [2] | % Fall in blood glucose levels STZ-S 24 h [2] | % Fall in blood glucose levels SLM (sucrose loaded rats) | % Fall in lipid levels (Triton model) PL ([1]; plasma phospholipid after 18 h) | % Fall in lipid levels (Triton model) TC [1, 6] | % Fall in lipid levels (Triton model) TG [1, 7]
1 | COc1ccc(/C=C/C(=O)c2ccc(OCC(O)CNC(C)(C)C)cc2)cc1OC (centres unmarked) [Compound 19, 4′-[3-tert-Butylamino-2-hydroxy-propoxy]-3,4-dimethoxy-chalcone] | 22% | 21% | 19% | 62 to 64 °C | 11.2% | NIL | NIL |  |  |  | 
2 | COc1ccc(/C=C/C(=O)c2ccc(OCC(O)CN3CCN(c4ccccc4)CC3)cc2)cc1 (centres unmarked) [Compound 20, 4′-[2-Hydroxy-3-(4-phenylpiperazin-1-yl)-propoxy]-4-methoxy-chalcone] | 11% | 11% | 10% | 165 to 167 °C | 7.78% | NIL | NIL |  |  |  | 
3 | COc1ccc(/C=C/C(=O)c2ccc(OCC(O)CNCC(C)C)cc2)cc1 (centres unmarked) [Compound 21, 4′-[3-iso-Butylamino-2-hydroxy-propoxy]-4-methoxy-chalcone] | 14% | 5% | 12% | 76 to 77 °C | 5.67% |  |  |  |  |  | 
4 | COc1ccc(/C=C/C(=O)c2ccc(OCC(O)CNC(C)(C)C)cc2)cc1 (centres unmarked) [Compound 22, 4′-[3-tert-Butylamino-2-hydroxy-propoxy]-4-methoxy-chalcone] | 11% | 16% | 21% | 70 to 71 °C | 11.8% | NIL | NIL |  |  |  | 
5 | COc1ccc(/C=C/C(=O)c2ccc(OCC(O)CNC(C)C)cc2)cc1 (centres unmarked) [Compound 23, 4′-[2-Hydroxy-3-iso-propylamino-propoxy]-4-methoxy-chalcone] | 12% | 17% | 22% | 105 to 106 °C | 1.41% |  |  |  |  |  | 
6 | COc1ccc(/C=C/C(=O)c2ccc(OCC(O)CN3CCN(c4ccccc4OC)CC3)cc2)cc1 (centres unmarked) [Compound 24, 4′-[2-Hydroxy-3-{4-(2-methoxyphenyl)-piperazin-1-yl}-propoxy]-4-methoxy-chalcone] | 15% | 24% | 14% | 97 to 98 °C | 10.8% |  | 6.18% |  |  |  | 
7 | COc1ccc(/C=C/C(=O)c2ccc(OCC(O)CNCCc3ccc(OC)c(OC)c3)cc2)cc1 (centres unmarked) [Compound 25, 4′-[3-{2-(3,4-Dimethoxyphenyl)-ethylamino}-2-hydroxy-propoxy]-4-methoxy-chalcone] | 10% | 4% | 33% | 120 to 121 °C |  |  |  | NIL |  |  | 
8 | CNCC(O)COc1ccc(C(=O)/C=C/c2ccc(OC)cc2)cc1 (centres unmarked) [Compound 26, 4′-[2-Hydroxy-3-methylamino-propoxy]-4-methoxy-chalcone] | 28% | 37% | 39% | 114 to 115 °C |  |  |  |  |  |  | 
9 | COc1ccc(/C=C/C(=O)c2cccc(OCC(O)CN3CCN(c4ccccc4)CC3)c2)cc1 (centres unmarked) [Compound 28, 3′-[2-Hydroxy-3-(4-phenylpiperazin-1-yl)-propoxy]-4-methoxy-chalcone] | 26% | 40% | 17% | 153 to 154 °C | 4.41% |  |  |  |  |  | 
10 | O=C(/C=C/c1ccc2c(c1)OCO2)c1ccc(OCC(O)CN2CCN(c3ccccc3)CC2)cc1 (centres unmarked) [Compound 33, 4′-[2-Hydroxy-3-(4-phenylpiperazin-1-yl)-propoxy]-3,4-methylenedioxy-chalcone] | 21% | 22% | 16% | 153 to 154 °C | 5.03% |  |  |  |  |  | 
11 | COc1ccc(C=CC(=O)c2cccc(OCCCCOc3ccc(C=C4SC(=O)NC4=O)cc3)c2)cc1 [Compound 43, 4-Methoxy-3′-{4-[4-(thiazolidin-2,4-dione-5-ylidinemethyl)-phenoxy]-butoxy}-chalcone] |  |  |  |  |  |  |  | NIL | 14% | 04% | 31%
12 | COc1ccc(C=CC(=O)c2cccc(OCCCCCOc3ccc(C=C4SC(=O)NC4=O)cc3)c2)cc1 [Compound 44, 4-Methoxy-3′-{5-[4-(thiazolidin-2,4-dione-5-ylidinemethyl)-phenoxy]-pentyloxy}-chalcone] |  |  |  |  |  |  |  | NIL | 13% | 06% | 19%
13 | O=C1NC(=O)C(=Cc2ccc(OCCCCOc3cccc(C(=O)C=Cc4ccc5c(c4)OCO5)c3)cc2)S1 [Compound 45, 3,4-Methylenedioxy-3′-{4-[4-(thiazolidin-2,4-dione-5-ylidinemethyl)-phenoxy]-butoxy}-chalcone] |  |  |  |  |  |  |  | 0.13% | 21% | 23% | 14%
